Measured values taken from patent publication US20050256178A1, “Novel nutraceutical compositions comprising boitin” (priority 2002, published 2005).

Key:
[1] = tested on: pre-diabetic Otsuka Long-Evans Tokushima fatty (OLETF) rats (NIDDM); test: Oral glucose tolerance in pre-diabetic OLETF rats; format: in vivo; settings: biotin orally (2-16 mg/day) or parentally (0.1 mg/day)
From the text: (§1) Biotin: Biotin supplementation enhances hepatic glucose clearance which results in a decrease of circulating glucose concentration and induces decrease in the hepatic PEPCK activity. PEPCK is a rate-limiting cytosolic enzyme that catalyses the first committed step of hepatic gluconeogenesis. Decrease of hepatic PEPCK activity results in a decrease in liver glucose output.

[2] = tested on: streptozotocin-diabetic rats (IDDM); test: Oral glucose tolerance in streptozotocin-diabetic rats; format: in vivo; settings: biotin orally (2-16 mg/day) or parentally (0.1 mg/day)
From the text: as §1

[3] = tested on: diabetic KK mice (NIDDM model); test: Oral glucose tolerance in diabetic KK mice; format: in vivo; settings: biotin orally (2-16 mg/day) or parentally (0.1 mg/day)
From the text: as §1

[4] = tested on: type 1 and type 2 diabetic patients; test: Preliminary human studies, fasting blood glucose after biotin supplementation; format: in vivo
From the text: as §1

C57BLKS/J db/db mice = test: Glucose removal after oral glucose load (OGTT) in db/db mice, 5-week study; format: in vivo; settings: for Glucose removal rate (% glucose decrease of control) 90 min / Glucose removal rate (% glucose decrease of control) 120 min / Glucose removal rate (% glucose decrease of control) 150 min / Glucose removal rate (% glucose decrease of control) 180 min: OGTT (1 g glucose/kg) in db/db mice after 4 weeks feed-ad-mix, biotin 8 mg/kg BW/day, phytanic acid 300 mg/kg BW/day; for Blood glucose levels during the glucose load compared to the control group: db/db mice, glucose load 1 g/kg, 90-180 min, biotin 8, phytanic acid 300 mg/kg BW/day
Procedure: The efficacy of the combination of biotin and phytanic acid as well as of both compounds alone on glucose removal was tested in a 5-week study in C57BLKS/J db/db mice (n=7−8/group). This model of late type 2 diabetes with severe hyperglycemia is widely used to determine the efficacy of anti-diabetic compounds.
Male db/db mice were obtained from Jackson Laboratory (Bar Harbor, Me., USA). Adult mice aged 8 weeks were used in the experiment. Mice were housed individually in plastic cages with bedding and allowed free access to standard rodent food and tap water. The animal rooms were controlled for temperature (24° C.), humidity (55%), and light (12-h light-dark cycle). The animals were randomized into four groups. Biotin and phytanic acid were administered as feed-ad-mix. Corn oil (1% of diet) served as a carrier substance for biotin and phytanic acid as well as a placebo when used alone. Group 1 received placebo, group 2 received biotin at a dose of 8 mg/kg body weight (BW)/day, group 3 received phytanic acid at a dose of 300 mg/kg BW/day, and group 4 received the combination of biotin and phytanic acid at a doses of 8 and 300 mg/kg BW/day, respectively. After 4 weeks of treatment glucose removal was assessed 90, 120, 150 and 180 minutes after an oral glucose load (1 g/kg body weight). Blood samples were obtained 90, 120, 150, 180 minutes from the tail vein for determination of blood glucose levels. Blood glucose was measured by a glucose analyzer (Glucotrend Premium, Roche Diagnostics, Rotkreuz, Switzerland). All data are expressed as means for animals in each diet group. Statistical significance of the mean differences between dietary groups was tested by one-way analysis of variance (ANOVA). If significant differences were found, the Dunnett's test for multiple comparison was used to compare each group to the control group. P values less than 0.05 were considered significant. All analyses were performed with Statistica (ver. 5.5A, StatSoft, Inc).
GRR is defined as the speed at which glucose is removed from blood and directed to the peripheral tissues. At 90, 120, 150 and 180 minutes after application of the glucose load blood glucose levels in animals treated with the combination of biotin and phytanic acid decreased to a greater extent than excepted by the decrease due to monotherapy with biotin or phytanic acid. […] To evaluate the GRR the glucose levels were expressed as the percent change of glucose levels for each group compared to the control group. The expected GRR is defined as the sum of the GRR exerted by biotin and by phytanic acid when used as a monotherapy.

[5] = tested on: catalytic subunit of glucose-6-phosphatase; test: Affymetrix GeneChip expression of glucose-6-phosphatase catalytic subunit in H-4-II-E rat liver cells; format: cell-based; settings: H-4-II-E cells, 24 h; 50 μM EGCG, 1 μM biotin, 50 μM cysteamin; Affymetrix Id 1370725_a_at; triplicate
Procedure: The Affymetrix GeneChip® high-density oligonucleotide microarray approach was chosen to determine the global gene expression in H-4-II-E rat liver cells.
H-4-II-E rat liver cells were obtained from the American Type Culture Collection (ATCC) and cultured in Medium 199 (Invitrogen) Basel, Switzerland) supplemented with 10% fetal calf serum in a humidified 5% CO2 atmosphere at 37° C. Cells were regularly passaged at subconfluence and used at low passage numbers. For the final assays, cells were trypsinized, seeded at a density of 1×10^6 cells/well in 6-well cell culture plates and maintained in Medium 199 & 0.1% BSA (Invitrogen) for another 6 h before compounds were applied. EGCG was applied in DMSO; cysteamin was first solved in 1M HCl and then applied to the stimulation medium, biotin was directly dissolved into the medium. After 24 h treatment, total RNA was harvested.
A total number of 24 samples were prepared following the Affymetrix GeneChip® array protocol (Affymetrix, Santa Clara, Calif., USA). Briefly, total cellular RNA was extracted by using Qiagen RNeasy Mini Kit with an on-column RNase-free DNase I digest (Qiagen, Basel, Switzerland). A T7-(T)24 primer (5′-[sequence] [sequence]-(dT)24-3′) was annealed to 10 kg of total RNA and Superscript II reverse transcriptase (400 U) was utilized to synthesize first-strand cDNA in the presence of DTT, dNTPs and 1× reaction buffer. Second strand synthesis was performed by adding E. coli DNA polymerase I (40 U), E. coli ligase (10 U) and RNase H (2 U) in a final reaction containing 1× second strand buffer in the presence of dNTPs. Finally strands were blunted using T4 DNA polymerase (10 U) (Superscript™ Microarray Customized Kit, Invitrogen, Basel, CH). cDNA was purified by phenol/chloroform extraction and subsequently in vitro transcription was carried out for 3 h using T7 RNA polymerase (Megascript™ T7 Kit, Ambion, Tex., USA), incorporating bio-16-UTPs and bio-11-CTPs (Roche Molecular Biochemicals, Penzberg, Germany). […]

rat primary hepatocytes = test: Glucose uptake in rat primary hepatocytes; format: cell-based; settings: about 10 to about 100 μM
From the text: (§2) Therefore, intake of phytanic acid helps to improve insulin sensitivity and may act as a preventative measure against type 2 diabetes and Syndrome X through activation of PPARs and RXR.

pre-adipocyte cells = test: Differentiation of pre-adipocyte cells into mature adipocytes; format: cell-based; settings: compared to the specific PPAR-γ agonist ciglitazone
From the text: as §2

SMILES | Oral glucose tolerance [1] | Oral glucose tolerance [2] | Oral glucose tolerance [3] | Fasting blood glucose levels [4] | Glucose removal rate (% glucose decrease of control) 90 min (C57BLKS/J db/db mice) | Glucose removal rate (% glucose decrease of control) 120 min (C57BLKS/J db/db mice) | Glucose removal rate (% glucose decrease of control) 150 min (C57BLKS/J db/db mice) | Glucose removal rate (% glucose decrease of control) 180 min (C57BLKS/J db/db mice) | Blood glucose levels during the glucose load compared to the control group (C57BLKS/J db/db mice) | MeanAvgDiff (Mean Relative Expression) of glucose-6-phosphatase catalytic subunit [5] | Uptake of glucose (rat primary hepatocytes) | Effects on differentiation of pre-adipocyte cells into mature adipocytes (pre-adipocyte cells)
O=C(O)CCCC[C@@H]1SC[C@@H]2NC(=O)N[C@@H]21 [Biotin] | improved oral glucose tolerance | improved oral glucose tolerance | improved oral glucose tolerance | decreased | 11.6% | 10.2% | 15.3% | 15.0% | Neither biotin nor phytanic acid caused a significant decrease | 516.66 | – | –
NCCS [Cysteamin, cysteamine] | – | – | – | – | – | – | – | – | – | 447.42 | – | –
O=C(O[C@@H]1Cc2c(O)cc(O)cc2O[C@@H]1c1cc(O)c(O)c(O)c1)c1cc(O)c(O)c(O)c1 [EGCG, Epigallocatechin gallate] | – | – | – | – | – | – | – | – | – | 484.8 | – | –
CC(C)CCCC(C)CCCC(C)CCCC(C)CC(=O)O (stereo not shown) [Phytanic acid, 3,7,11,15-tetramethylhexadecanoic acid] | – | – | – | – | 9.7% | 12.5% | 14.6% | 15.2% | Neither biotin nor phytanic acid caused a significant decrease | – | enhances uptake of glucose | only minor effects
